Assay results taken from patent publication EP2813571A1, “Method for the treatment of lung cancer” (Institut d'Investigació Biomèdica de Bellvitge (IDIBELL), priority 2013, dated 2014).
pEC50: −log10 of the molar value.

Legend:
NCI-H1299 = assay: MTT cell viability assay; type: cell-based; settings: Homo sapiens, SETDB1 non-amplified cell line NCI-H1299
Method: (§1) • Figure 1. Determination of SETDB1 gene amplification and its association with RNA and protein overexpression in lung cancer cell lines. (A) Assessment of SETDB1 copy number by quantitative genomic PCR. Amplification frequency of SETDB1 (evaluated with SYBR Green) was calculated by the standard curve method using the 7900HT SDS program. To define an internal control gene chromosome 1p36.23 was chosen because it is the least aneuploid region among our cell lines (PEX19 gene). DNA from normal lung was used as the reference standard. Results are reported as n-fold copy number increase relative to the PEX19 gene. […] The internal control gene was ACTB (beta-actin). • Figure 2. Growth-promoting effects of SETDB1 in lung cancer. (A) Stable down-regulation of the SETDB1 gene by short hairpins using two different target sequences for DMS-273 (clones A30/A31 and clone B32-63) and NCI-H1437 (clones A56-B and B46-9). […] Tumor volume was monitored over time and the tumor was excised and weighed at 30 days. […] (A) Effect of SETDB1 on the invasion potential of A549 cells determined by the matrigel invasion assay. […] Invasive cells were counted using ImageJ 1.45s (Wayne Rasband, National Institutes of Health, USA) and the percentage of invasive cells was represented. Results are the mean of at least three experiments by duplicate and the significance was determined using ANOVA-test. *p<0.05. […]

NCI-H1437 = assay: MTT cell viability assay; type: cell-based; settings: Homo sapiens, SETDB1 amplified cell line NCI-H1437
Method: as §1

A549 = assay: MTT cell viability assay; type: cell-based; settings: Homo sapiens, SETDB1 non-amplified cell line A549
Source text: (§2) The observation that the presence of the SETDB1 gene amplification with associated overexpression was critical for the tumorigenesis of these lung cancer cells prompted the inventors to examine whether drugs targeting this pathway might find a therapeutic "niche" for their use in the described subset of cases with extra copies of this gene. No highly specific inhibitor for SETDB1 has been described in the publicly available literature, but one agent-mithramycin- is a clinically approved anti-tumor antibiotic that binds to DNA by interacting with the minor groove and displacing transcriptional activators that bind to GC-rich binding sites. Thus, the inventors tested whether a putative growth-inhibitory effect of this drug in lung cancer cells was dependent on SETDB1 expression. First, western blot analyses for the SETDB1 protein in the SETDB1 amplified lung cancer cell lines DMS-273, NCI-H1437 and NCI-H1395 upon the use of the drug were developed. […] Experiments for each clone were performed in triplicate. Furthermore, we extended the cell viability experiments, using the MTT assay, to the other two SETDB1 amplified lung cancer cell lines (NCI-H1437 and NCI-H1395) and to three SETDB1 non-amplified lung cancer cell lines (DMS-114, A549 and NCI-H1299). […] Thus, the presence of SETDB1 gene amplification could "mark" lung cancer cells that are more sensitive to the inhibition of cell viability associated with the use of mithramycin.

DMS-114 = assay: MTT cell viability assay; type: cell-based; settings: Homo sapiens, SETDB1 non-amplified cell line DMS-114
Source text: as §2

NCI-H1395 = assay: MTT cell viability assay; type: cell-based; settings: Homo sapiens, SETDB1 amplified cell line NCI-H1395
Source text: as §2

DMS-273 = assay: MTT cell viability assay; type: cell-based, human; settings: scramble shRNA DMS-273 cells compared with SETDB1-depleted clones; triplicate
Method: as §1

SETDB1 protein = assay: Western blot for SETDB1 protein after drug treatment of SETDB1 amplified lung cancer cell lines; type: cell-based, human; settings: DMS-273, NCI-H1437 and NCI-H1395
Method: as §1

CL1-5 = settings: Lin and Wang 2007; cited from earlier work
H647 = settings: Lin and Wang 2007; cited from earlier work
CL1-5 cells = settings: Lin and Wang 2007; cited from earlier work

CO[C@H](C(=O)[C@@H](O)[C@@H](C)O)[C@@H]1Cc2cc3cc(O[C@H]4C[C@@H](O[C@H]5C[C@@H](O)[C@H](O)[C@@H](C)O5)[C@H](O)[C@@H](C)O4)c(C)c(O)c3c(O)c2C(=O)[C@H]1O[C@H]1C[C@@H](O[C@H]2C[C@@H](O[C@H]3C[C@](C)(O)[C@H](O)[C@@H](C)O3)[C@H](O)[C@@H](C)O2)[C@H](O)[C@@H](C)O1 [mithramycin, (1S)-5-deoxy-1-C-((2S,3S)-7-{[2,6-dideoxy-3-O-(2,6-dideoxy-β-D-arabino-hexopyranosyl)-β-D-arabino-hexopyranosyl]oxy}-3-{[2,6-dideoxy-3-C-methyl-β-D-ribo-hexopyranosyl-(1→3)-2,6-dideoxy-β-D-arabino-hexopyranosyl-(1→3)-2,6-dideoxy-β-D-arabino-hexopyranosyl]oxy}-5,10-dihydroxy-6-methyl-4-oxo-1,2,3,4-tetrahydroanthracen-2-yl)-1-O-methyl-D-xylulose]
pEC50 (NCI-H1299): 7.49
pEC50 (NCI-H1437): 7.87
pEC50 (A549): 6.91
pEC50 (DMS-114): 6.46
pEC50 (NCI-H1395): 7.83
sensitivity to the growth-inhibitory effect (DMS-273): significantly more sensitive
SETDB1 expression (SETDB1 protein): inhibit SETDB1 expression
growth of human lung cancer cell lines (CL1-5): inhibiting the growth
growth of human lung cancer cell lines (H647): inhibiting the growth
invasion phenotypes (CL1-5 cells): inhibiting the invasion phenotypes
